Legend:
SIRT1 [1] = target: T1, SIRT1 (Homo sapiens, UniProt Q96EB6); test: Trp mass spectrometry assay of SIRT1 activity; format: biochemical; conditions: Trp assay; for Trp EC1.5 (μM): concentration giving 150% activation of SIRT1; for Emax: percent maximum fold activation, read-out: Trp % Fold Act
T1 sequence (Q96EB6 1-747): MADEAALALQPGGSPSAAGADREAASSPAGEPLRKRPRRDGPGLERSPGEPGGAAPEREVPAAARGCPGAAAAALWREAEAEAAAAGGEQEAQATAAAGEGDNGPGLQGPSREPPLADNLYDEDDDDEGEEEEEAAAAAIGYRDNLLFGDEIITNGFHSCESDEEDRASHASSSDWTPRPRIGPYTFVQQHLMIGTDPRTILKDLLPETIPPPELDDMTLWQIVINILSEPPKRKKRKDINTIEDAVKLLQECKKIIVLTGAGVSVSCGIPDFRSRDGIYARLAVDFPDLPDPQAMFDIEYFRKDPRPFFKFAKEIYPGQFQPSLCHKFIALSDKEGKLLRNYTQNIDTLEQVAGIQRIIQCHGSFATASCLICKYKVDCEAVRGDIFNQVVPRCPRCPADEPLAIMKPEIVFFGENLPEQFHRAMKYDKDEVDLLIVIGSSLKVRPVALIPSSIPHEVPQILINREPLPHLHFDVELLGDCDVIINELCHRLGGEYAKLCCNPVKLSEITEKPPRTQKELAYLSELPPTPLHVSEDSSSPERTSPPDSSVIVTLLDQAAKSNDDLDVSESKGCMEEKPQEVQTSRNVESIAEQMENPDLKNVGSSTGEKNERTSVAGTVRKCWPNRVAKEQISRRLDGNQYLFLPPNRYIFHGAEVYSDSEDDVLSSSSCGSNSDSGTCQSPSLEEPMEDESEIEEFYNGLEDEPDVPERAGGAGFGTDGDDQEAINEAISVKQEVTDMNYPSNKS
Summary of the method: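 His-tagged SIRT1 expressed in E. coli BL21(DE3), 10 nM, incubated 25 min at 25° C. with 0.5 μM Ac-RHKK(Ac)W-NH2 peptide and 120 μM βNAD+ in 50 mM HEPES pH 7.5, […], 1 mM DTT, 0.05% BSA; formic acid stop. OAADPR or deacetylated peptide measured by mass spectrometry; EC1.5 and percent maximum activation versus DMSO control.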

SIRT1 [2] = target: T1, SIRT1; test: TAMRA based mass spectrometry assay of SIRT1 activity; format: biochemical; conditions: TAMRA assay; for TAMRA EC1.5 (μM): concentration giving 150% activation of SIRT1; for Emax: percent maximum fold activation, read-out: TAMRA % Fold Act
Summary of the method: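 Recombinant N-terminal His-tagged human SIRT1 (10 nM, E. coli) incubated 25 min at 25 °C with 0.5 μM 5TMR-labelled p53-derived acetyl-peptide and 120 μM βNAD+ in Tris-acetate pH 8 buffer with DTT and 0.05% BSA, compound at varying concentrations. Stopped with formic acid; deacetylated peptide or OAADPR measured by mass spectrometry relative to DMSO controls.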

Structure (SMILES)	Trp EC1.5 (μM) (SIRT1 [1])	Emax (SIRT1 [1]) [%]	TAMRA EC1.5 (μM) (SIRT1 [2])	Emax (SIRT1 [2]) [%]
COc1cc(NC(=O)c2cnc3ccc(-c4ccccc4C(F)(F)F)nn23)ncn1 [Compound 197]	B (EC1.5 1-25 μM)	< 350	A (EC1.5<1 μM)	≥ 350
COc1cc(OC)nc(NC(=O)c2cnc3ccc(-c4ccccc4C(F)(F)F)nn23)n1 [Compound 198]	B (EC1.5 1-25 μM)	< 350	A (EC1.5<1 μM)	≥ 350
Cc1cc(-c2ccccc2C(F)(F)F)nn2c(C(=O)Nc3cccnc3)cnc12 [Compound 206]	B (EC1.5 1-25 μM)	≥ 350	B (EC1.5 1-25 μM)	≥ 350
Cc1cc(-c2ccccc2C(F)(F)F)nn2c(C(=O)Nc3ccnc(N4CCC4)c3)cnc12 [Compound 207]	A (EC1.5<1 μM)	≥ 350	A (EC1.5<1 μM)	≥ 350
Cc1cc2ncc(C(=O)Nc3cccnc3)n2nc1-c1ccccc1C(F)(F)F [Compound 210]	B (EC1.5 1-25 μM)	≥ 350	B (EC1.5 1-25 μM)	≥ 350
O=C(Nc1cncc(OCC(O)CO)n1)c1cnc2ccc(-c3ccccc3C(F)(F)F)nn12 (stereo not drawn) [Compound 213]	A (EC1.5<1 μM)	≥ 350	A (EC1.5<1 μM)	≥ 350
O=C(Nc1cnc2ccc(-c3ccccc3C(F)(F)F)nn12)c1ccnc(CN2CCCC2)c1 [Compound 214]	C (EC1.5>25 μM)	< 350	C (EC1.5>25 μM)	< 350
O=C(Nc1cccnc1N1CCOCC1)c1cnc2ccc(-c3ccccc3C(F)(F)F)nn12 [Compound 215]	C (EC1.5>25 μM)	< 350	C (EC1.5>25 μM)	< 350
O=C(Nc1cnc2ccc(-c3ccccc3C(F)(F)F)nn12)c1cscn1 [Compound 218]	B (EC1.5 1-25 μM)	< 350	A (EC1.5<1 μM)	≥ 350
Cc1cc(C)nc(C(=O)Nc2cnc3ccc(-c4ccccc4C(F)(F)F)nn23)n1 [Compound 221]	B (EC1.5 1-25 μM)	< 350	A (EC1.5<1 μM)	≥ 350
Cc1cc2ncc(C(=O)Nc3ccncc3)n2nc1-c1ccccc1C(F)(F)F [Compound 223, 7-methyl-N-(pyridin-4-yl)-6-(2-(trifluoromethyl)phenyl)imidazo[1,2-b]pyridazine-3-carboxamide]	B (EC1.5 1-25 μM)	≥ 350	B (EC1.5 1-25 μM)	≥ 350
Cc1cc2ncc(C(=O)Nc3ccccn3)n2nc1-c1ccccc1C(F)(F)F [Compound 224]	B (EC1.5 1-25 μM)	≥ 350	B (EC1.5 1-25 μM)	≥ 350
Cc1c(-c2ccccc2C(F)(F)F)nn2c(C(=O)Nc3cccc(N4CCOCC4)n3)cnc2c1C [Compound 227]	B (EC1.5 1-25 μM)	≥ 350	A (EC1.5<1 μM)	≥ 350
Cc1cc(C)nc(NC(=O)c2cnc3c(C)c(C)c(-c4ccccc4Cl)nn23)c1 [Compound 230]	C (EC1.5>25 μM)	< 350	A (EC1.5<1 μM)	≥ 350
Cc1cncc(C(=O)Nc2cnc3ccc(-c4ccccc4C(F)(F)F)nn23)c1 [Compound 231]	B (EC1.5 1-25 μM)	< 350	B (EC1.5 1-25 μM)	≥ 350
Cc1ccnc(C(=O)Nc2cnc3ccc(-c4ccccc4C(F)(F)F)nn23)c1 [Compound 233]	C (EC1.5>25 μM)	< 350	A (EC1.5<1 μM)	≥ 350
O=C(Nc1cnc2ccc(-c3ccccc3C(F)(F)F)nn12)c1cccc(OC[C@H](O)CO)n1 [Compound 236]	A (EC1.5<1 μM)	≥ 350	A (EC1.5<1 μM)	≥ 350
Cc1cc(NC(=O)c2cnc3ccc(-c4ccccc4C(F)(F)F)nn23)nc(C)n1 [Compound 238]	C (EC1.5>25 μM)	< 350	A (EC1.5<1 μM)	≥ 350
O=C(Nc1cccnc1)c1cnn2ccc(-c3ccccc3C(F)(F)F)nc12 [Compound 239]	B (EC1.5 1-25 μM)	≥ 350	B (EC1.5 1-25 μM)	≥ 350
Cc1cc(NC(=O)c2cnc3ccc(-c4ccccc4F)nn23)ccn1 [Compound 242]	B (EC1.5 1-25 μM)	< 350	B (EC1.5 1-25 μM)	< 350
COc1cccc(NC(=O)c2cnc3ccc(-c4ccccc4F)nn23)n1 [Compound 244]	A (EC1.5<1 μM)	< 350	B (EC1.5 1-25 μM)	< 350
O=C(Nc1ccc(CN2CCCC2)cn1)c1cnc2ccc(-c3ccccc3C(F)(F)F)nn12 [Compound 248]	B (EC1.5 1-25 μM)	< 350	B (EC1.5 1-25 μM)	≥ 350
O=C(Nc1cnn2ccc(-c3ccccc3C(F)(F)F)nc12)c1ccccn1 [Compound 249]	B (EC1.5 1-25 μM)	< 350	A (EC1.5<1 μM)	≥ 350
O=C(Nc1cnn2ccc(-c3ccccc3C(F)(F)F)nc12)c1ccncc1 [Compound 251]	C (EC1.5>25 μM)	< 350	C (EC1.5>25 μM)	< 350
O=C(Nc1cnn2ccc(-c3ccccc3C(F)(F)F)nc12)c1ccncn1 [Compound 254]	C (EC1.5>25 μM)	< 350	B (EC1.5 1-25 μM)	≥ 350
O=C(Nc1cnn2ccc(-c3ccccc3C(F)(F)F)nc12)c1cccc(CN2CCOCC2)n1 [Compound 255]	B (EC1.5 1-25 μM)	< 350	A (EC1.5<1 μM)	≥ 350
Cc1cc(NC(=O)c2cnc3ccc(-c4ccccc4F)nn23)cc(C)n1 [Compound 257]	B (EC1.5 1-25 μM)	< 350	A (EC1.5<1 μM)	< 350
Cc1cc(NC(=O)c2cnc3ccc(-c4ccccc4Cl)nn23)cc(C)n1 [Compound 260]	B (EC1.5 1-25 μM)	< 350	A (EC1.5<1 μM)	≥ 350
COc1cccc(NC(=O)c2cnc3ccc(-c4ccccc4Cl)nn23)n1 [Compound 261]	A (EC1.5<1 μM)	< 350	A (EC1.5<1 μM)	< 350
O=C(Nc1ccc(OCC(O)CO)nc1)c1cnc2ccc(-c3ccccc3C(F)(F)F)nn12 (stereo not drawn) [Compound 263]	B (EC1.5 1-25 μM)	< 350	B (EC1.5 1-25 μM)	≥ 350

Reference: US9957271B2, “Substituted bicyclic aza-heterocycles and analogues as sirtuin modulators” (GlaxoSmithKline, LLC, priority 2012, dated 2018)
